Key:
[1] = test system: cerebrocortical synaptosomes; experiment: Synaptosomal viability (lactate dehydrogenase activity, % lysis vs Triton X-100); assay type: cell-based, rat; conditions: for lysis (LDH activity relative to Triton X-100 = 100% of lysis): 60 min incubation
Description: FIG. 3—Synaptosomal viability—verified by the activity of the enzyme lactate dehydrogenase, which oxidizes the NADH to NAD+. The latter determines a reduction in the reading (339 nm), which enables one to qualify the enzymatic activity. The reaction mixture was incubated for 60 min with PnTx(19) (10^-5 M; 3×10^-5 M; 10^-6 M; 3×10^-6 M) and the activity percentage evaluated with respect to the lysis triggered by the Triton X-100, considered=100% of lysis. The activity of this enzyme is proportional to the breakage of the synaptosomes, considering that this is an enzyme of the intracellular compartment.
Adult rats (240-300 g) were decapitated the brains were rapidly removed, immersed into homogenization solution (sucrose 0.32 M, EDTA 1 Mm and Dithiotreitol (DTT) 0.25 mM, pH=7.4) and kept in ice, then they were used in preparing the synaptosomes, as previously described by Dunkley et al 1988 (DUNKLEY, P. R.; Brain Research, 441, 59-71, 1988).
As control of the viability of the synaptosomes and also for verifying a possible lytic activity of the peptide, one carried out tests for activity of the enzyme lactate dehydrogenase, according to Kubowistz, Ott, 1943 (KUBOWISTZ, F., OTT, C. Biochem Z. 319, 94-117, 1943).

[2] = test system: cerebrocortical synaptosomes of rats; experiment: Release of L-glutamate from cerebrocortical synaptosomes; assay type: cell-based, rat; conditions: 3×10^-5 M, compared with control (untreated synaptosomes), only active concentration of 10-6 to 3×10^-5 M
Description: FIG. 4—Effect of different concentrations of the PnTx(19) in releasing L-glutamate—ELISA Plate containing 300 μl/well of the synaptosome mixture (10% final volume) and NADP+(final concentration of 1 mM) in KRH with calcium (2 mM), kept at 37° C. under constant stirring was monitored. One carried out the reading of the fluorescence on the spectrofluorimeter for 2460 seconds. The enzyme GDH (35 units for the final volume of 300 μl) was added to the wells at 60 seconds; at 660 seconds, in different wells, one added different concentrations of PnTx(19) (“10^-5M, 3×10^-5 M, 10^-6 M and 3×10^-6 M”) and the KCI (33 mM). As negative controls, one used wells containing untreated synaptosomes […]. […]
The release of L-glutamate was analyzed according to the proposal of Nicholls et al. 1987 (NICHOLLS, D. et al. J. Neurochem. 49, 5057, 1987). In order to evaluate whether the peptide was capable of inducing release of L-glutamate in cerebrocortical synoptosomes of rats, just as the native toxin, one analyzed the effect thereof at the following concentrations: 10^-5M, 3×10^-5M, 10^-6M, and 2×10^-6 M, […].

[3] = test system: channels for sodium Nav1.5, present in cardiomyocytes; experiment: Patch-clamp of cardiac sodium current; assay type: cell-based; conditions: PnTx-19 1 μM
Source text: FIG. 6—Effects of the peptide PnTx-19 and of the toxin PnTx2-6 in the cardiac sodium current. A—Effect of the toxin PnTx2-6 on the peak of sodium current (black arrow) and in the inactivation current (gray arrow). C—Effect of the peptide PnTx-19 on the peak of the sodium current and in the inactivation current. D—Course of time of peak in the sodium current, during the perfusion of PnTx-19 and PnTx-26. Each black circle indicates the amplitude of the Ina, measured every 1 second in a membrane potential of −20 mV. The gray bars indicate the moment when the cell was exposed to PnTx2-6 or PnTX-19 (peptide). The bar graphs summarize the effects of PnTx2-6 500 nM (n=7) and of the peptide PnTx-19 (peptide) 1 μM (n=12) in the decay constant (E) and reduction of the sodium current (F). Bars indicate average±SEM, *p<0.05 with respect to the controls.
Patch-clamp experiments were carried out with a view to analyze the effects of the toxin PnTx2-6 and of the peptide PnTx-19 on channels for sodium Nav1.5, present in cardiomyocytes.

[4] = test system: isolated perfused heart; experiment: Isolated perfused heart: ventricular pressure, heart rate and ±dP/dt; design: species or system rats; conditions: peptide 37.8 nmol/L-37.8 μmol/L
Description: FIG. 7—Response dose curve of the peptide PnTx-19 and of the Toxin PnTx2-6 in the right (A) and (B) ventricular pressure, derived±dP/dt (C and D) and cardiac rate (E) of rats.
The rats were kept under a controlled cycle of 12 h light/darkness at a stable temperature with free access to water and food. They were decapitated 10 to 15 minutes after intraperitoneal injection of Heparin (200 IU). The thorax was opened, the heart was carefully desiccated and perfused through an aortic tip with Krebs-Ringer solution (KRS) containing (by mmol/L) NaCl (118.4), KCl (4.7), KH2PO4 (1.2), MgSO4.7H2O (1.2), CaCl2.2H2O (1.25), glucose (11.7) and NaHCO3 (26.5). The perfusion flow was kept constant (10 mL/min) at 37° C. and under constant oxygenation (5% CO2 and 95% O2). A balloon connected to a pressure transducer was inserted into the right ventricle, and one monitored the ventricular pressure, heart rate and derivative±dP/dt (FIG. 7). The balloon volume was adjusted to a final diastolic pressure of about 10 mm Hg. After a period for reaching the balance (30 to 40 minutes), 100 μmol/L carrier were injected (control), toxin at concentrations of 37.8 nmol/L-3.78 μmol/L or a peptide at concentrations of 37.8 nmol/L-37.8 μmol/L in perfusion buffer.
The results are the average±SEM. […]

[5] = test system: Swiss mice; experiment: Immunogenicity after subcutaneous immunization (indirect ELISA antibody titer); assay type: in vivo; conditions: 10 μg subcutaneous, during the assays
Description: FIG. 8—Analysis of the antibody titer. A) Control: adjuvant (aluminum hydroxide). B) antibody titer after administration of the peptide PnTx-19 (10 μG) in different days.
Swiss, male, 20-23 gram mice were divided into 2 groups (Control—Adjuvant: aluminum hydroxide—FIG. 8 A and PnTx-19-10 μG—FIG. 8B), each group containing 4 animals. The mice were immunized by subcutaneous route. 21, 35 and 49 days from the first inoculation, the mice received a reinforcement of the above-mentioned preparations. To verify the presence of antibodies against the PnTx-19, the serum collected from the mouse tails was evaluated 15, 30, 40 and 60 days after the first inoculation through the indirect immunoenzymatic assay (ELISA), as described for other preparations (DEL PINO, F. A. B., BRANDELLI, A., GONZALES, J. C., HENRIQUES, J. A. P., DEWES, H., Effect of antibodies against β-N-acetylglucosaminidase on reproductive efficiency of the bovine tick Boophilus microplus. Vet. Parasitol. 79, 247-255, 1998).

[6] = Water solubility of the peptide; assay type: physicochemical; conditions: acetylated and amidated peptide
Source text: With a view to increasing the solubility of the peptide, in the present technology one has synthetized the PnTx(19) with modifications in the N-terminal portion (acetylation) and C-terminal portion (amidation).

[7] = test system: strips of cavernous body isolated from mice; experiment: Relaxation of cavernous-body strips pre-contracted with phenylephrine; conditions: acetylcholine 10^-4 M (control); pre-contracted by phenylephrine 10^-5 M
Source text: FIG. 5—Effects of the toxin PnTx2-6 and of the peptide PnTx(19) (1×10^-6M) on the relaxation of strips of cavernous goodies of mice. The strips were pre-contracted with phenylefrine (10^-5 M) and relaxed with acetylcholine (10^-4M)-control, PnTx2-6 (5×10^-8M) and PnTx(19) (x10-6 M) (n=3).
Mice were sacrificed by decapitation, their penis were removed surgically and placed on a Petri dish containing Krebs Ringer bicarbonate—(NaCl, 118.1; KCl, 4.7; KH2PO4, 1.0; MgSo4, 1.0: NaHCO3, 25.0; CaCl2, 2.55; and Glucose, 11.1 mM), bubbled with a mixture of 95% O2 and 5% CO2. The gland, the spongy body and the urethra were removed and the cavernous bodies were desiccated with removal of the tunica albuginea and separated by cutting the fibrous septum between them. The strips of cavernous bodies measuring about 1×1×7 mm were mounted separately in a chamber, one end thereof being secured to an electrode and the other linked to a transducer. […]
The tissue was stretched by a passive force of 2.0 mN and stabilized for 60 minutes, the solution being replaced every 15 minutes. The changes in isometric force were recorded by using an isometric force transducer (World Precision Instruments, Inc., Sarasota, Fla., USA), connected to an amplifier (TBM-4 model; World Precision Instruments, Inc., USA), using software WinDaq Data Acquisition (Dada® Instruments, USA). […]

Molecule | lysis (LDH activity relative to Triton X-100 = 100% of lysis) ([1]; 3×10^-5 M) [%] | lysis (LDH activity relative to Triton X-100 = 100% of lysis) ([1]; 3×10^-6 M) [%] | lysis (LDH activity relative to Triton X-100 = 100% of lysis) ([1]; 10^-5 M) [%] | effect on synaptosomal viability and/or exocytotic machinery ([1]; 10^-6 M to 3×10^-5 M, compared with control (absence of the peptide)) | lysis (LDH activity relative to Triton X-100 = 100% of lysis) ([1]; 10^-6 M) [%] | release of L-glutamate [2] | release of L-glutamate ([2]; listed as PnTx19) | effect on density of the sodium current [3] | effect on peak of sodium current and inactivation current [3] | effect on ventricular pressure, ±dP/dt and heart rate [4] | hypersensitivity or death reactions of the animals [5] | solubility in water [6] | relaxation of cavernous-body strips [7] [%]
Ac-GERRQYFWIAWYKLANSKK-NH2 [PnTx(19)] | 2 | 9 | 3.4 | does not affect the synaptosomal viability and/or exocytotic machinery | 6 | induced an increase in the release of glutamate | capable of inducing significant release of L-glutamate | this phenomenon was not observed | These effects were not observed | did not alter any of these parameters | No hypersensitivity or death reactions | water-soluble | –
CC(=O)OCC[N+](C)(C)C [acetylcholine] | – | – | – | – | – | – | – | – | – | – | – | – | 81.6

— US9279004B2, “Synthetic PnTx(19) peptide, pharmaceutical compositions and use” (priority 2012, dated 2016)
